Laboratory results published in publication PMC10233829 (ACS Omega, 2023).
In brackets after ≈: the same amount, converted by molar mass. Where two headings read alike, the source gives them in different places.

Tests used:
M. tuberculosis H37Rv = assay: Tuberculostatic activity, Microplate Alamar Blue Assay (MIC); format: cell-based, Mycobacterium tuberculosis; conditions: Mycobacterium tuberculosis, H37RV; MABA; read-out: MIC M. tuberculosis H37Rv
S. epidermidis KR4243/1 = assay: MIC, twofold microdilution, clinical strain; format: cell-based; conditions: Staphylococcus epidermidis, 18 h
S. aureus ATCC 29213 = assay: MIC, twofold microdilution, standard strain; format: cell-based; conditions: Staphylococcus aureus, ATCC29213, 18 h
P. aeruginosa 37 = assay: MIC, twofold microdilution, clinical strain; format: cell-based; conditions: Pseudomonas aeruginosa, 18 h
S. aureus T5595 = assay: MIC, twofold microdilution, clinical strain; format: cell-based, Staphylococcus aureus; conditions: for MIC: Staphylococcus aureus, T5595, 18 h
[1] = MTT assay, cytotoxic activity; format: cell-based; conditions: human, HaCaT cells (immortal keratinocytes); MTT, 72 h, normal cell line; read-out: IC50 HaCaT
Experimental: (§1) Cells were seeded in 6 mL medium in a tissue culture flask (50 mL) in a 37 °C/5% CO2 humidified incubator. […] MTT analysis was performed according to a previous study.[59] Untreated cells were used as controls. Cell absorbance results were inserted into the formula for the relative MTT level (%). It allows to calculate the viability of cells under the influence of the tested compounds. Cell viability was expressed as the percentage of MTT reduction in cells treated with tested compounds compared to the control sample. The relative MTT level was calculated using the formula [100%] = A/B × 100% where A—the test sample absorbance and B—the control sample absorbance.

P. aeruginosa 659 = assay: MIC, twofold microdilution, clinical strain; format: cell-based; conditions: Pseudomonas aeruginosa, 18 h
E. cloacae 8 = assay: MIC, twofold microdilution, clinical strain; format: cell-based, Escherichia cloacae; conditions: Enterobacter cloacae, 8; clinical strain, 18 h
[2] = test system: Staphylococci (standard strains); assay: MIC, standard Gram-positive strains as a panel; format: cell-based, S. aureus, S. epidermidis; conditions: read-out: MIC toward standard Staphylococci (range over strains)
S. epidermidis 5253 = assay: MIC, twofold microdilution, clinical strain; format: cell-based, Staphylococcus epidermidis; conditions: for MIC S. epidermidis 5253: 18 h; for MIC: Staphylococcus epidermidis, 5253, 18 h
[3] = test system: S. epidermidis ATCC 35984; assay: MIC, twofold microdilution, standard strain; format: cell-based; conditions: Staphylococcus epidermidis, ATCC35984, 18 h
E. coli 951 = assay: MIC, twofold microdilution, clinical strain; format: cell-based; conditions: Escherichia coli, 18 h
P. aeruginosa ATCC 15442 = assay: MIC, twofold microdilution, standard strain; format: cell-based, Pseudomonas aeruginosa; conditions: Pseudomonas aeruginosa, ATCC15442; standard strain, 18 h
S. aureus ATCC 25923 = assay: MIC, twofold microdilution, standard strain; format: cell-based; conditions: Staphylococcus aureus, ATCC25923, 18 h
S. aureus 5595 = assay: MIC, twofold microdilution, clinical strain; format: cell-based; conditions: Staphylococcus aureus, 18 h
S. aureus T5591 = assay: MIC, twofold microdilution, clinical strain; format: cell-based, Staphylococcus aureus; conditions: for MIC: Staphylococcus aureus, T5591, 18 h
S. aureus NCTC 4163 = assay: MIC, twofold microdilution, standard strain; format: cell-based; conditions: Staphylococcus aureus, NCTC4163, 18 h
S. epidermidis 4341 = assay: MIC, twofold microdilution, clinical strain; format: cell-based; conditions: Staphylococcus epidermidis, 18 h
E. coli 520 = assay: MIC, twofold microdilution, clinical strain; format: cell-based; conditions: Escherichia coli, 18 h
PC3 cells = assay: MTT assay, cytotoxic activity; format: cell-based, human; conditions: Homo sapiens, PC-3, 72 h, MTT, 72 h
Experimental: as §1, with “Metastatic prostate cancer (PC3) and human immortal keratinocyte (HaCaT) cell lines were purchased from the American Type Culture Collection (ATCC, Rockville, MD, USA) and cultured in MEM (minimal essential medium, Thermo Sci, USA), RPMI 1640 (Roswell Park Memorial Institute, Biowest SAS, France), and DMEM (Dulbecco’s Modified Eagle’s Medium, Biowest SAS, France). Cells” for “Cells”

[4] = test system: M. tuberculosis Spec. 192; assay: Tuberculostatic activity, Microplate Alamar Blue Assay (MIC); format: cell-based; conditions: Mycobacterium tuberculosis, MABA, read-out: MIC M. tuberculosis Spec. 192 (sensitive to tuberculostatics)
[5] = test system: S. epidermidis ATCC 12228; assay: MIC, twofold microdilution, standard strain; format: cell-based; conditions: Staphylococcus epidermidis, ATCC12228, 18 h
E. coli 600 = assay: MIC, twofold microdilution, clinical strain; format: cell-based, Escherichia coli; conditions: Escherichia coli, 600, 18 h
S. pasteuri KR 4358 = assay: MIC, twofold microdilution, clinical strain; format: cell-based; conditions: Staphylococcus pasteuri, KR4358, 18 h
M. tuberculosis Spec 210 = assay: microbe, parasite or virus in culture; format: cell-based, Mycobacterium tuberculosis; conditions: M. tuberculosis Spec. 210
S. aureus ATCC 6538 = assay: MIC, twofold microdilution, standard strain; format: cell-based, Staphylococcus aureus; conditions: Staphylococcus aureus, ATCC6538; standard strain, 18 h
E. coli ATCC 25922 = assay: MIC, twofold microdilution, standard strain; format: cell-based, Escherichia coli; conditions: Escherichia coli, ATCC25922; standard strain, 18 h
[6] = test system: clinical bacterial strains; assay: MIC, clinical isolates as groups of strains; format: cell-based; conditions: for fold more effective than CP: S. aureus 180 and 5595; for MIC: clinical strains, read-out: MIC against selected E. coli and E. cloacae strains
S. aureus 180 = assay: MIC, twofold microdilution, clinical strain; format: cell-based; conditions: Staphylococcus aureus, 18 h
K. pneumoniae 28 = assay: MIC, twofold microdilution, clinical strain; format: cell-based; conditions: Klebsiella pneumoniae, 18 h
K. pneumoniae 510 = assay: MIC, twofold microdilution, clinical strain; format: cell-based, Klebsiella pneumoniae; conditions: Klebsiella pneumoniae, 510; clinical strain, 18 h
S. aureus DNA gyrase = S. aureus DNA gyrase (Staphylococcus aureus, UniProt P0A0K8+P20831); assay: biochemical; conditions: supercoiling of relaxed pBR322
S. aureus DNA gyrase, sequence (P0A0K8 whole entry): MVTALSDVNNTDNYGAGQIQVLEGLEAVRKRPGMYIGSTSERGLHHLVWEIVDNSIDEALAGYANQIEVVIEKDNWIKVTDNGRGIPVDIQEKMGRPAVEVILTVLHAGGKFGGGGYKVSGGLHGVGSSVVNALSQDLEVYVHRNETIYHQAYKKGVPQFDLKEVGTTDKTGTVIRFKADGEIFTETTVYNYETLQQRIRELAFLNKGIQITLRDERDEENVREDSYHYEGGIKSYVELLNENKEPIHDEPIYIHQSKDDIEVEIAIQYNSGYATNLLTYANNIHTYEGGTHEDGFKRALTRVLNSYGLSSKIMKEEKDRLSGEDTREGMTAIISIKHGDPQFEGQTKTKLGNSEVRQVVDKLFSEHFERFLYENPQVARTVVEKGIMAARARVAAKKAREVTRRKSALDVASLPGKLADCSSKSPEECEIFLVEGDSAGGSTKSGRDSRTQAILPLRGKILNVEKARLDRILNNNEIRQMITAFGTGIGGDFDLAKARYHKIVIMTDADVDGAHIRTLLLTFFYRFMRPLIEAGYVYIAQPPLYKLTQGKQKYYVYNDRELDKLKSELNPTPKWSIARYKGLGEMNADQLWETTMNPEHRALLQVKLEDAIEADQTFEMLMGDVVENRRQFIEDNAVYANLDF
S. aureus DNA gyrase, sequence (P20831 whole entry): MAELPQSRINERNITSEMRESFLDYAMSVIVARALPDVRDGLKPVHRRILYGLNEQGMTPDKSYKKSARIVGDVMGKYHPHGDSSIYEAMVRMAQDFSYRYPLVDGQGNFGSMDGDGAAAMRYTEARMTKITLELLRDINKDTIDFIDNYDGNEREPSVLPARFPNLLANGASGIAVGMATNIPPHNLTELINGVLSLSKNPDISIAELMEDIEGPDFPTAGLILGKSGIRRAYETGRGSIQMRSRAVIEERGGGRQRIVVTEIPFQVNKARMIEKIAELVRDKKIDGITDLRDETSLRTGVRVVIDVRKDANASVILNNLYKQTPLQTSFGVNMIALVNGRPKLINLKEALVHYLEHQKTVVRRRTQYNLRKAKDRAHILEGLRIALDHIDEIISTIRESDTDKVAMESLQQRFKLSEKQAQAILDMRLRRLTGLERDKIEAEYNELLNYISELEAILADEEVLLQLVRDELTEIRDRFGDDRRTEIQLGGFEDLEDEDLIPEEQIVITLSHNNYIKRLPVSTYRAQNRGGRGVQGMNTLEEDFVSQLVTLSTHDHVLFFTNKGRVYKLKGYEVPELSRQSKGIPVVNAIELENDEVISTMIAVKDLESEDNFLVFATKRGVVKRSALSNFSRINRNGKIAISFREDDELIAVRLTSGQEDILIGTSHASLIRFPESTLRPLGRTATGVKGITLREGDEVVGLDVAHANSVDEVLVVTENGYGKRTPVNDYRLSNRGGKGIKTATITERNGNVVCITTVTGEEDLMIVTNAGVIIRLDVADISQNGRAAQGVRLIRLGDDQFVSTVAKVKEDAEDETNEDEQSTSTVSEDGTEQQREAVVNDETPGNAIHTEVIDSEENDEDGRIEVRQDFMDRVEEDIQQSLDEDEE
Experimental: The enzymatic assay was carried using commercial topoisomerases type II as previously described by Alt et al.[55] with some modifications.
Briefly, 1 U of the enzyme (gyrase or topo IV, Inspiralis. Norwich, UK) isolated from S. aureus converts […] of relaxed pBR322 DNA to the supercoiled form (gyrase) or decatenates 200 ng of kinetoplast DNA (topo IV). […] The reactions were terminated by adding an equal volume of STEB buffer (40% sucrose, 100 mM Tris–HCl pH 8, 10 mM EDTA, and 0.5 mg/mL bromophenol blue), followed by extraction with 1 volume of chloroform/isoamyl alcohol (24:1). The samples were vortexed and centrifuged, and 20 μL of the aqueous phase of each sample was loaded onto a 1% agarose gel and left for 30 min prior to electrophoresis to allow diffusion of salt. […] Gels were stained with ethidium bromide and visualized under UV light in a transilluminator (ChemiDoc MP, Bio Rad).

[7] = biological target: T1, S. aureus topoisomerase IV (Staphylococcus aureus, UniProt P0C1S7+P0C1U9); assay: Topoisomerase IV decatenation assay; format: biochemical; conditions: decatenation of kinetoplast DNA; read-out: IC50 S. aureus topoisomerase IV (converted)
T1 construct: purchased Inspiralis, Norwich, UK
T1 sequence (P0C1U9 whole entry): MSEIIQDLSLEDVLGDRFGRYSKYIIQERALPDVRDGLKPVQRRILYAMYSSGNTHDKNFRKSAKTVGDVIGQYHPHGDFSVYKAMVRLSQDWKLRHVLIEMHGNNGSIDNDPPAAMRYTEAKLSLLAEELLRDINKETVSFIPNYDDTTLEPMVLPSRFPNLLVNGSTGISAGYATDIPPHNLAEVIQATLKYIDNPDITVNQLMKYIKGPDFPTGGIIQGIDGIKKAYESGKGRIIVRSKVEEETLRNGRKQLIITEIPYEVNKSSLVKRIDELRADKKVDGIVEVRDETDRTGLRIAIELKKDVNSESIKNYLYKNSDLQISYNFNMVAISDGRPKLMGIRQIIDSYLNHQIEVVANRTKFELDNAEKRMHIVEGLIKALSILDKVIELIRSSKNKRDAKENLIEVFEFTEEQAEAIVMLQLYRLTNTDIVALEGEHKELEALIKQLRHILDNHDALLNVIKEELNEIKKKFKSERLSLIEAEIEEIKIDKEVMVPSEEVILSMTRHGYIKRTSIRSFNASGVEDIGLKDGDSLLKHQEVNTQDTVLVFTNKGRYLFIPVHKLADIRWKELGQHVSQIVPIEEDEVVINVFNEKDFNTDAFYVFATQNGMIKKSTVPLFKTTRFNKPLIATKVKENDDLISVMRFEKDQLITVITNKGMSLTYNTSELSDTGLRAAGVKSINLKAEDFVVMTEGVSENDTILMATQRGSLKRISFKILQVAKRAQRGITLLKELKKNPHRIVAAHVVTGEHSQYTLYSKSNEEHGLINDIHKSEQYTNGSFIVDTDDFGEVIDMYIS
T1 sequence (P0C1S7 whole entry): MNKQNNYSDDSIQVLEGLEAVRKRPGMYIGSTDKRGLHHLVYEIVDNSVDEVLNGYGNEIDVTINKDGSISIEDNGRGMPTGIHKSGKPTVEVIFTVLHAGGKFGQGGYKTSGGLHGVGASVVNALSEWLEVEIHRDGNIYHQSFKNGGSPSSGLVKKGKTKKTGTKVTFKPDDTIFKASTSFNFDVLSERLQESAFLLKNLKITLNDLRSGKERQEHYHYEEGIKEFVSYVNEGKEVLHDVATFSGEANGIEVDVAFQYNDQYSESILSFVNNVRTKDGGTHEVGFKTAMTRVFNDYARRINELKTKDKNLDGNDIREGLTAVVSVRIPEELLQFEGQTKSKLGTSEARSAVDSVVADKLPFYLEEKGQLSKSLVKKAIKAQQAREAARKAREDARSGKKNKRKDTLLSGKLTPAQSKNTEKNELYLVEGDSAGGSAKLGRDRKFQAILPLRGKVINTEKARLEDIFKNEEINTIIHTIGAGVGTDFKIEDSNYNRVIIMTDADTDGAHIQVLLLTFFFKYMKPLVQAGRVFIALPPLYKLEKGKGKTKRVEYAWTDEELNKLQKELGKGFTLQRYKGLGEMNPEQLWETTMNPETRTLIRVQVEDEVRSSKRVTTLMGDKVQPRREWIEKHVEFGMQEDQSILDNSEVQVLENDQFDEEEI

[8] = test system: P. aeruginosa ATCC 15442 and E. coli ATCC 25922; assay: MIC, standard Gram-negative rods as a panel; format: cell-based; conditions: P. aeruginosa ATCC 15442, E. coli ATCC 25922; read-out: MIC against standard Gram-negative rods (range over strains)

| SMILES | MIC (M. tuberculosis H37Rv) [µg/mL] | MIC (S. epidermidis KR4243/1) [µg/mL] | MIC (S. aureus ATCC 29213) [µg/mL] | MIC (P. aeruginosa 37) [µg/mL] | MIC (S. aureus T5595) [µg/mL] | IC50 at 72 h [1] [µM] | MIC (P. aeruginosa 659) [µg/mL] | MIC (E. cloacae 8) [µg/mL] | MIC S. epidermidis 5253 (S. epidermidis 5253) [µg/mL] | MIC (S. epidermidis 5253) [µg/mL] | MIC [3] [µg/mL] | MIC (E. coli 951) [µg/mL] | MIC (P. aeruginosa ATCC 15442) [µg/mL] | MIC (S. aureus ATCC 25923) [µg/mL] | MIC (S. aureus 5595) [µg/mL] | MIC (S. aureus T5591) [µg/mL] | MIC (S. aureus NCTC 4163) [µg/mL] | MIC (S. epidermidis 4341) [µg/mL] | MIC (E. coli 520) [µg/mL] | IC50 (PC3 cells) [µM] | also measured |
| --- | --- | --- | --- | --- | --- | --- | --- | --- | --- | --- | --- | --- | --- | --- | --- | --- | --- | --- | --- | --- | --- |
| O=C(O)c1cn(C2CC2)c2cc(N3CCN(C(=O)CCCl)CC3)c(F)cc2c1=O [Compound 4, 7-[4-(3-Chloropropionyl)-piperazin-1-yl]-1-cyclopropyl-6-fluoro-4-oxo-1,4-dihydro-quinoline-3-carboxylic Acid] | 2 (≈ 4.74 µM) | 0.2 (≈ 0.474 µM) | 0.2 (≈ 0.474 µM) | > 25.6 | 0.4 (≈ 0.948 µM) | > 100 | > 25.6 | 0.8 (≈ 1.9 µM) | 25.6 (≈ 60.7 µM) | 12.8 to 25.6 (≈ 30.3 to 60.7 µM) | 0.2 (≈ 0.474 µM) | 25.6 (≈ 60.7 µM) | 12.8 (≈ 30.3 µM) | 0.4 (≈ 0.948 µM) | 0.2 (≈ 0.474 µM) | 0.4 (≈ 0.948 µM) | 0.2 (≈ 0.474 µM) | 6.4 (≈ 15.2 µM) | 0.8 (≈ 1.9 µM) | 51.6 ± 8.1 | MIC ([2]; standard Gram-positive strains of Table 1): 0.1 to 0.8 µg/mL (≈ 0.237 to 1.9 µM); MIC [4]: 1 µg/mL (≈ 2.37 µM); MIC [5]: 0.2 µg/mL (≈ 0.474 µM); MIC (E. coli 600): 0.8 µg/mL (≈ 1.9 µM); MIC (S. pasteuri KR 4358): 0.2 µg/mL (≈ 0.474 µM); fold more effective than the reference tuberculostatics (M. tuberculosis Spec 210): 8–32 fold; MIC (S. aureus ATCC 6538): 0.2 µg/mL (≈ 0.474 µM); MIC (E. coli ATCC 25922): 3.2 µg/mL (≈ 7.59 µM); fold more effective than CP [6]: 2.5 fold; share of the reference (CP) activity ([6]; S. aureus T5595 and T5591): 62.5%; MIC [6]: 0.1 to 0.8 µg/mL (≈ 0.237 to 1.9 µM); MIC (S. aureus 180): 0.2 µg/mL (≈ 0.474 µM); MIC (K. pneumoniae 28): > 25.6 µg/mL; MIC (K. pneumoniae 510): > 25.6 µg/mL |
| O=C(O)c1cn(C2CC2)c2cc(N3CCN(C(=O)CCCCCl)CC3)c(F)cc2c1=O [Compound 6, 7-[4-(5-Chloropentanoyl)-piperazin-1-yl]-1-cyclopropyl-6-fluoro-4-oxo-1,4-dihydro-quinoline-3-carboxylic Acid] | 0.5 (≈ 1.11 µM) | 0.2 (≈ 0.445 µM) | 0.2 (≈ 0.445 µM) | 6.4 (≈ 14.2 µM) | 0.1 to 0.2 (≈ 0.222 to 0.445 µM) | 19.7 ± 2.8 | 12.8 (≈ 28.5 µM) | 0.8 (≈ 1.78 µM) | 12.8 (≈ 28.5 µM) | 12.8 to 25.6 (≈ 28.5 to 56.9 µM) | 0.2 (≈ 0.445 µM) | 12.8 (≈ 28.5 µM) | 1.6 (≈ 3.56 µM) | 0.2 (≈ 0.445 µM) | 0.1 (≈ 0.222 µM) | 0.1 to 0.2 (≈ 0.222 to 0.445 µM) | 0.2 (≈ 0.445 µM) | 6.4 (≈ 14.2 µM) | 0.4 (≈ 0.889 µM) | 108 ± 11 | IC50 (S. aureus DNA gyrase): 12 µM; IC50 [7]: 17.8 µM; MIC S. aureus T5595 (S. aureus T5595; 18 h): 0.2 µg/mL (≈ 0.445 µM); MIC [2]: 0.1 to 0.8 µg/mL (≈ 0.222 to 1.78 µM); MIC S. aureus T5591 (S. aureus T5591; 18 h): 0.2 µg/mL (≈ 0.445 µM); MIC [8]: ≤ 1 µg/mL; MIC [4]: 0.5 µg/mL (≈ 1.11 µM); MIC [5]: 0.2 µg/mL (≈ 0.445 µM); MIC (E. coli 600): 0.4 µg/mL (≈ 0.889 µM); MIC (S. pasteuri KR 4358): 0.2 µg/mL (≈ 0.445 µM); MIC (S. aureus ATCC 6538): 0.2 µg/mL (≈ 0.445 µM); MIC (E. coli ATCC 25922): 0.2 µg/mL (≈ 0.445 µM); fold more effective than CP [6]: 5 fold; times more powerful than CP ([6]; S. aureus T5595 and T5591): 1.25–2.5 times; MIC [6]: 0.1 to 0.8 µg/mL (≈ 0.222 to 1.78 µM); MIC (S. aureus 180): 0.1 µg/mL (≈ 0.222 µM); MIC (K. pneumoniae 28): > 25.6 µg/mL; MIC (K. pneumoniae 510): > 25.6 µg/mL |
